*1 amine or outer side, *2 acyl side, *3 side chain or, on linkers, in order; H or OH if unused. Where a SMILES comes first, the peptide text is derived from it. Side-chain parts run from the residue outwards. [ ]: non-standard residue; d: D form. The star is where a group is joined. C20 diacid = O=C(O)CCCCCCCCCCCCCCCCCCC(=O)*; C16 diacid = O=C(O)CCCCCCCCCCCCCCC(=O)*; γGlu = O=C(O)[C@H](CCC(=O)[*:2])N[*:1]; NMeI = CC[C@H](C)[C@H](NC)C(=O)O; Decanoyl = CCCCCCCCCC(=O)*; AEEA = NCCOCCOCC(=O)O; Aib = CC(C)(N)C(=O)O
System: human LAD2 cells
Format: cell-based
Outline: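 Mast cell degranulation: cells exposed to peptides for 30 min at final concentrations from 50, 100 or 300 down to 0.1 or 0.001 μM, with 0.5% DMSO where used, in biological duplicates. β-hexosaminidase release was read with a fluorogenic 4-methylumbelliferyl substrate as supernatant/(supernatant + Triton-lysed pellet) × 100. EC50 came from a 4-parameter sigmoidal fit.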

SMILES	EC50
CCCCCCCCCC(=O)N[C@H](C(=O)N[C@@H](CC(C)C)C(=O)N[C@@H](CO)C(=O)N[C@@H](CC(C)C)C(=O)N[C@@H](CC(=O)O)C(=O)N[C@@H](C(=O)N1CCC[C@H]1C(=O)N[C@H](C(=O)N[C@@H](CCCCN)C(=O)N[C@@H](CC(C)C)C(=O)N[C@@H](CCCCNC(=O)CC[C@H](NC(=O)CCCCCCCCCCCCCCCCCCC(=O)O)C(=O)O)C(=O)N[C@@H](CCCCN)C(=O)N[C@H](C(=O)N[C@@H](CC(C)C)C(=O)N[C@@H](CC(C)C)C(=O)N[C@@H](CCC(=O)O)C(=O)N[C@@H](CCC(N)=O)C(=O)N[C@@H](CCC(=O)O)C(=O)N[C@@H](CCCCN)C(=O)N[C@@H](CCC(N)=O)C(=O)N[C@@H](CCCCN)C(=O)N[C@@H](CCCCN)C(=O)N[C@@H](CCC(N)=O)C(=O)N[C@@H](CCCNC(=N)N)C(=O)N[C@@H](CCC(=O)O)C(=O)N[C@@H](CCC(N)=O)C(=O)N[C@@H](C)C(=O)N[C@@H](CCC(=O)O)C(=O)N[C@H](C(=O)N[C@@H](CC(N)=O)C(=O)NC(C)(C)C(=O)N[C@@H](CCC(N)=O)C(=O)N[C@H](C(=O)N[C@@H](CC(C)C)C(=O)N[C@@H](C)C(=O)N[C@@H](CCC(N)=O)C(=O)N[C@H](C(N)=O)C(C)C)[C@@H](C)CC)[C@@H](C)O)[C@@H](C)CC)[C@@H](C)CC)C(C)C)C(C)C [Cmpd 223] (Decanoyl-VLSLD[dV]PIKLK([γGlu-C20 diacid])KILLEQEKQKKQREQAETN[Aib]QILAQV-NH2)	> 300 µM
CC[C@H](C)[C@H](NC(C)=O)C(=O)N[C@H](C(=O)N[C@@H](CC(C)C)C(=O)N[C@@H](CO)C(=O)N[C@@H](CC(C)C)C(=O)N[C@@H](CC(=O)O)C(=O)N[C@@H](C(=O)N1CCC[C@H]1C(=O)N[C@H](C(=O)N[C@@H](CCCCN)C(=O)N[C@@H](CC(C)C)C(=O)N[C@@H](CCCCNC(=O)CC[C@H](NC(=O)CC[C@H](NC(=O)CCCCCCCCCCCCCCCCCCC(=O)O)C(=O)O)C(=O)O)C(=O)N[C@@H](CCCCN)C(=O)N[C@H](C(=O)N[C@@H](CC(C)C)C(=O)N[C@@H](CC(C)C)C(=O)N[C@@H](CCC(=O)O)C(=O)N[C@@H](CCC(N)=O)C(=O)N[C@@H](CCC(=O)O)C(=O)N[C@@H](CCCCN)C(=O)N[C@@H](CCC(N)=O)C(=O)N[C@@H](CCCCN)C(=O)N[C@@H](CCC(=O)O)C(=O)N[C@@H](CCC(N)=O)C(=O)N[C@@H](CCCNC(=N)N)C(=O)N[C@@H](CCC(=O)O)C(=O)N[C@@H](CCC(N)=O)C(=O)N[C@@H](C)C(=O)N[C@@H](CCC(=O)O)C(=O)N[C@H](C(=O)N[C@@H](CC(N)=O)C(=O)NC(C)(C)C(=O)N[C@@H](CCC(N)=O)C(=O)N[C@H](C(=O)N[C@@H](CC(C)C)C(=O)N[C@@H](C)C(=O)N[C@@H](CCC(N)=O)C(=O)N[C@H](C(N)=O)C(C)C)[C@@H](C)CC)[C@@H](C)O)[C@@H](C)CC)[C@@H](C)CC)C(C)C)C(C)C [Cmpd 241] (Ac-IVLSLD[dV]PIKLK([γGlu-γGlu-C20 diacid])KILLEQEKQKEQREQAETN[Aib]QILAQV-NH2)	> 300 µM
CC[C@H](C)[C@H](NC(C)=O)C(=O)N[C@H](C(=O)N[C@@H](CC(C)C)C(=O)N[C@@H](CO)C(=O)N[C@@H](CC(C)C)C(=O)N[C@@H](CC(=O)O)C(=O)N[C@@H](C(=O)N1CCC[C@H]1C(=O)N[C@H](C(=O)N[C@@H](CCCCN)C(=O)N[C@@H](CC(C)C)C(=O)N[C@@H](CCCCNC(=O)CC[C@H](NC(=O)CCCCCCCCCCCCCCC(=O)O)C(=O)O)C(=O)N[C@@H](CCCCN)C(=O)N[C@H](C(=O)N[C@@H](CC(C)C)C(=O)N[C@@H](CC(C)C)C(=O)N[C@@H](CCC(=O)O)C(=O)N[C@@H](CCC(N)=O)C(=O)N[C@@H](CCC(=O)O)C(=O)N[C@@H](CCCCN)C(=O)N[C@@H](CCC(N)=O)C(=O)N[C@@H](CCCCN)C(=O)NC(C)(C)C(=O)N[C@@H](CCC(N)=O)C(=O)N[C@@H](CCCNC(=N)N)C(=O)N[C@@H](CCC(=O)O)C(=O)N[C@@H](CCC(N)=O)C(=O)N[C@@H](C)C(=O)N[C@@H](CCC(=O)O)C(=O)N[C@H](C(=O)N[C@@H](CC(N)=O)C(=O)NC(C)(C)C(=O)N[C@@H](CCC(N)=O)C(=O)N[C@H](C(=O)N[C@@H](CC(C)C)C(=O)N[C@@H](C)C(=O)N[C@@H](CCC(N)=O)C(=O)N[C@H](C(N)=O)C(C)C)[C@@H](C)CC)[C@@H](C)O)[C@@H](C)CC)[C@@H](C)CC)C(C)C)C(C)C [Cmpd 162] (Ac-IVLSLD[dV]PIKLK([γGlu-C16 diacid])KILLEQEKQK[Aib]QREQAETN[Aib]QILAQV-NH2)	> 50 µM
CC[C@H](C)[C@H](NC)C(=O)N[C@H](C(=O)N[C@@H](CC(C)C)C(=O)N[C@@H](CO)C(=O)N[C@@H](CC(C)C)C(=O)N[C@@H](CC(=O)O)C(=O)N[C@@H](C(=O)N1CCC[C@H]1C(=O)N[C@H](C(=O)N[C@@H](CCCCN)C(=O)N[C@@H](CC(C)C)C(=O)N[C@@H](CCCCNC(=O)CC[C@H](NC(=O)CCCCCCCCCCCCCCCCCCC(=O)O)C(=O)O)C(=O)N[C@@H](CCCCN)C(=O)N[C@H](C(=O)N[C@@H](CC(C)C)C(=O)N[C@@H](CC(C)C)C(=O)N[C@@H](CCC(=O)O)C(=O)N[C@@H](CCC(N)=O)C(=O)N[C@@H](CCC(=O)O)C(=O)N[C@@H](CCCCN)C(=O)N[C@@H](CCC(N)=O)C(=O)N[C@@H](CCCCN)C(=O)N[C@@H](C)C(=O)N[C@@H](CCC(N)=O)C(=O)N[C@@H](CCCNC(=N)N)C(=O)N[C@@H](CCC(=O)O)C(=O)N[C@@H](CCC(N)=O)C(=O)N[C@@H](C)C(=O)N[C@@H](CCC(=O)O)C(=O)N[C@H](C(=O)N[C@@H](CC(N)=O)C(=O)NC(C)(C)C(=O)N[C@@H](CCC(N)=O)C(=O)N[C@H](C(=O)N[C@@H](CC(C)C)C(=O)N[C@@H](C)C(=O)N[C@@H](CCC(N)=O)C(=O)N[C@H](C(N)=O)C(C)C)[C@@H](C)CC)[C@@H](C)O)[C@@H](C)CC)[C@@H](C)CC)C(C)C)C(C)C [Cmpd 217] (H-[NMeI]VLSLD[dV]PIKLK([γGlu-C20 diacid])KILLEQEKQKAQREQAETN[Aib]QILAQV-NH2)	> 300 µM
CC[C@H](C)[C@H](N)C(=O)N[C@H](C(=O)N[C@@H](CC(C)C)C(=O)N[C@@H](CO)C(=O)N[C@@H](CC(C)C)C(=O)N[C@@H](CC(=O)O)C(=O)N[C@H](C(=O)N1CCC[C@H]1C(=O)N[C@H](C(=O)N[C@@H](CCCCN)C(=O)N[C@@H](CC(C)C)C(=O)N[C@@H](CCCCNC(=O)CC[C@H](NC(=O)CCCCCCCCCCCCCCC(=O)O)C(=O)O)C(=O)N[C@@H](CCC(N)=O)C(=O)N[C@H](C(=O)N[C@@H](CC(C)C)C(=O)N[C@@H](CC(C)C)C(=O)N[C@@H](CCCCN)C(=O)N[C@@H](CCC(N)=O)C(=O)N[C@@H](CCC(=O)O)C(=O)N[C@@H](CCCNC(=N)N)C(=O)N[C@@H](CCC(N)=O)C(=O)N[C@@H](CCCCN)C(=O)N[C@@H](CCCCN)C(=O)N[C@@H](CCC(N)=O)C(=O)N[C@@H](CCCNC(=N)N)C(=O)N[C@@H](CCC(=O)O)C(=O)N[C@@H](CCC(N)=O)C(=O)N[C@@H](C)C(=O)N[C@@H](CCC(=O)O)C(=O)N[C@@H](CCCCN)C(=O)N[C@@H](CC(N)=O)C(=O)N[C@@H](CCCCN)C(=O)N[C@@H](CCC(N)=O)C(=O)N[C@H](C(=O)N[C@@H](CC(C)C)C(=O)N[C@@H](CCC(=O)O)C(=O)N[C@@H](CCC(N)=O)C(=O)N[C@H](C(N)=O)C(C)C)[C@@H](C)CC)[C@@H](C)CC)[C@@H](C)CC)C(C)C)C(C)C [151 (comp)] (H-IVLSLDVPIKLK([γGlu-C16 diacid])QILLKQERQKKQREQAEKNKQILEQV-NH2)	32.9 µM
CC[C@H](C)[C@H](NC(C)=O)C(=O)N[C@H](C(=O)N[C@@H](CC(C)C)C(=O)N[C@@H](CO)C(=O)N[C@@H](CC(C)C)C(=O)N[C@@H](CC(=O)O)C(=O)N[C@@H](C(=O)N1CCC[C@H]1C(=O)N[C@H](C(=O)N[C@@H](CCCCN)C(=O)N[C@@H](CC(C)C)C(=O)N[C@@H](CCCCNC(=O)COCCOCCNC(=O)COCCOCCNC(=O)CC[C@H](NC(=O)CCCCCCCCCCCCCCCCCCC(=O)O)C(=O)O)C(=O)N[C@@H](CCCCN)C(=O)N[C@H](C(=O)N[C@@H](CC(C)C)C(=O)N[C@@H](CC(C)C)C(=O)N[C@@H](CCC(=O)O)C(=O)N[C@@H](CCC(N)=O)C(=O)N[C@@H](CCC(=O)O)C(=O)N[C@@H](CCCCN)C(=O)N[C@@H](CCC(N)=O)C(=O)N[C@@H](CCCCN)C(=O)N[C@@H](CCC(=O)O)C(=O)N[C@@H](CCC(N)=O)C(=O)N[C@@H](CCCNC(=N)N)C(=O)N[C@@H](CCC(=O)O)C(=O)N[C@@H](CCC(N)=O)C(=O)N[C@@H](C)C(=O)N[C@@H](CCC(=O)O)C(=O)N[C@H](C(=O)N[C@@H](CC(N)=O)C(=O)NC(C)(C)C(=O)N[C@@H](CCC(N)=O)C(=O)N[C@H](C(=O)N[C@@H](CC(C)C)C(=O)N[C@@H](C)C(=O)N[C@@H](CCC(N)=O)C(=O)N[C@H](C(N)=O)C(C)C)[C@@H](C)CC)[C@@H](C)O)[C@@H](C)CC)[C@@H](C)CC)C(C)C)C(C)C [Cmpd 236] (Ac-IVLSLD[dV]PIKLK([AEEA-AEEA-γGlu-C20 diacid])KILLEQEKQKEQREQAETN[Aib]QILAQV-NH2)	74.1 µM
CC[C@H](C)[C@H](NC(C)=O)C(=O)N[C@H](C(=O)N[C@@H](CC(C)C)C(=O)N[C@@H](CO)C(=O)N[C@@H](CC(C)C)C(=O)N[C@@H](CC(=O)O)C(=O)N[C@@H](C(=O)N1CCC[C@H]1C(=O)N[C@H](C(=O)N[C@@H](C)C(=O)N[C@@H](CC(C)C)C(=O)N[C@@H](CCCCNC(=O)CC[C@H](NC(=O)CCCCCCCCCCCCCCC(=O)O)C(=O)O)C(=O)N[C@@H](CCCCN)C(=O)N[C@H](C(=O)N[C@@H](CC(C)C)C(=O)N[C@@H](CC(C)C)C(=O)N[C@@H](CCC(=O)O)C(=O)N[C@@H](CCC(N)=O)C(=O)N[C@@H](CCC(=O)O)C(=O)N[C@@H](CCCCN)C(=O)N[C@@H](CCC(N)=O)C(=O)N[C@@H](CCCCN)C(=O)N[C@@H](CCCCN)C(=O)N[C@@H](CCC(N)=O)C(=O)N[C@@H](CCCNC(=N)N)C(=O)N[C@@H](CCC(=O)O)C(=O)N[C@@H](CCC(N)=O)C(=O)N[C@@H](C)C(=O)N[C@@H](CCC(=O)O)C(=O)N[C@H](C(=O)N[C@@H](CC(N)=O)C(=O)NC(C)(C)C(=O)N[C@@H](CCC(N)=O)C(=O)N[C@H](C(=O)N[C@@H](CC(C)C)C(=O)N[C@@H](C)C(=O)N[C@@H](CCC(N)=O)C(=O)N[C@H](C(N)=O)C(C)C)[C@@H](C)CC)[C@@H](C)O)[C@@H](C)CC)[C@@H](C)CC)C(C)C)C(C)C [Cmpd 163] (Ac-IVLSLD[dV]PIALK([γGlu-C16 diacid])KILLEQEKQKKQREQAETN[Aib]QILAQV-NH2)	> 100 µM

From patent US20260001928A1 (CORTERIA PHARMACEUTICALS, priority 2022, published 2026)
